Assays:
[1] = In vitro permeation through Nuclepore synthetic membrane (intact or modified by formulation), Franz diffusion cell; type: in vitro ADME; settings: for percent permeation: at 4 h
Excerpt: (§1) Three types of membranes were used in this study, a synthetic membrane and two biological membranes, porcine skin and porcine sublingual oral mucosa. […] The biological membranes were a porcine sublingual mucosa and porcine skin. The porcine tongues with sublingual mucosa were supplied by the Faculty of Pharmacy of the University of Barcelona from the Hospital de Bellvitge campus according to the protocols of the ethics committee and with the supervision of the above institution. The mucous membrane was dermatomed to a thickness of 500–700 µm (Dermatome GA630, Aesculap, Tuttlingen, Germany), and portions of the sublingual oral mucosa were obtained to fit in the Franz diffusion cells. In addition, to determine the specific thickness, each mucosal portion was measured with a digital micrometer (MAHR, Göttingen, Germany). Porcine skin was obtained from the unboiled back of a Landrace large white pig (3 months old, weight around 40 kg) (supplied by the Department of Cardiology of the Clinic Hospital of Barcelona). Animal handling was approved by the Institutional Review Board and Ethics Committee of Institut d’Investigacions Biomèdiques August Pi i Sunyer (IDIBAPS), and the management of the animals conformed to the Guide for the Care and Use of Laboratory Animals. Porcine skin was dermatomed to a thickness of 500 ± 50 µm (Dermatome GA630, Aesculap, Germany) and stored at −20 °C until further use.
The Nuclepore synthetic membrane, sublingual mucosa, and porcine skin dermatomed to a thickness of 500–700 µm were used to evaluate the permeation of drug/biocidal compounds. These studies were performed using a Franz vertical diffusion cell (Lara Spiral, Couternon, France) as described before. […]
(§2) Next, a pseudoinfinite dose (300 µL) of the drug or biocidal solution was applied to each Franz cell. […] The permeation of three biocides, Fungitrol (FUN), propiconazole (PRO), and permethrin (PER), was also determined. […]
(§3) The release of each compound was evaluated by determining the cumulative amount permeated (Qn, μg/cm^2), which corresponds to the cumulative amount of the substance quantified in the receiving liquid per unit of surface area of the applied sample [31].
(§4) The experimental Qn and % compound release data were used to construct graphs showing permeation over time. […] The model was determined with the nonlinear regression software STATGRAPHICS plus 5 (Statgraphics Technologies, Inc., The Plains, VA, USA), and the best equation was selected based on the highest correlation coefficient corrected for the number of degrees of freedom (R^2 DoFs).
Parameters were obtained from the graph. Fluxes (J, μg/cm^2/h) from the tested compounds were calculated from the slope of the linear portion of the cumulative amounts permeated through the membrane per unit surface area versus time plot. […]

[2] = In vitro permeation through porcine skin, Franz diffusion cell; type: in vitro ADME; settings: after 4 h
Excerpt: Three types of membranes were used in this study, a synthetic membrane and two biological membranes, porcine skin and porcine sublingual oral mucosa. […] The biological membranes were a porcine sublingual mucosa and porcine skin. The porcine tongues with sublingual mucosa were supplied by the Faculty of Pharmacy of the University of Barcelona from the Hospital de Bellvitge campus according to the protocols of the ethics committee and with the supervision of the above institution. The mucous membrane was dermatomed to a thickness of 500–700 µm (Dermatome GA630, Aesculap, Tuttlingen, Germany), and portions of the sublingual oral mucosa were obtained to fit in the Franz diffusion cells. In addition, to determine the specific thickness, each mucosal portion was measured with a digital micrometer (MAHR, Göttingen, Germany). […]
as §2
The release of each compound was evaluated by determining the cumulative amount permeated (Qn, μg/cm^2), which corresponds to the cumulative amount of the substance quantified in the receiving liquid per unit of surface area of the applied sample [31]. […]

[3] = In vitro permeation through porcine sublingual mucosa (intact or modified by formulation), Franz diffusion cell; type: in vitro ADME
Excerpt: as §1
The Nuclepore synthetic membrane, sublingual mucosa, and porcine skin dermatomed to a thickness of 500–700 µm were used to evaluate the permeation of drug/biocidal compounds. These studies were performed using a Franz vertical diffusion cell (Lara Spiral, Couternon, France) as described before. The receiving fluid (RF) used was PBS:EtOH (1:1) for drug permeation and EtOH:H2O (75:25) for biocide permeation, assuring sink conditions of the compounds.
Next, a pseudoinfinite dose (300 µL) of the drug or biocidal solution was applied to each Franz cell. Solutions were applied in triplicate to determine the kinetic parameters. […] The permeation of three biocides, Fungitrol (FUN), propiconazole (PRO), and permethrin (PER), was also determined. The biocides were dissolved in ethanol, each at a concentration of 1%.
Samples (0.2 mL) were collected at different times (0 h, 0.5 h, 1 h, 2 h, and 4 h), and the same volume of receptor fluid was immediately added back for replacement.
as §3, §4
Parameters were obtained from the graph. Fluxes (J, μg/cm^2/h) from the tested compounds were calculated from the slope of the linear portion of the cumulative amounts permeated through the membrane per unit surface area versus time plot. The permeability coefficients (Kp, cm/h) were obtained by dividing the J by the initial drug/biocide concentration. And Cmax represented the maxima concentration permeated for each active substance.
As in the previous TMWL assay, dermatomed porcine sublingual mucosa and split skin at a thickness of 500–700 µm as well as the synthetic Nuclepore membrane were used in this study.

[4] = cited from earlier work

Cn1c(=O)c2c(ncn2C)n(C)c1=O [Caffeine]
maximum permeation ([1]; Nuclepore membrane (NP), between 0.5 and 4 h): 50%
percent permeation ([1]; Nuclepore modified with formulation 6 (NP F6)): 65%
percent permeation ([1]; Nuclepore modified with hydrophobic formulation 3 (NP F3)): 40%
percent permeation ([1]; Nuclepore modified with liposomal formulation 16 (printed NP F6)): 40%
percent permeation [2]: approximately 10%
Permeability Coef. Kp ([3]; MUCOSA F3: mucosa modified with formulation 3): 8.3 ± 2.5 10^−3 cm/h
Permeability Coef. Kp ([3]; MUCOSA F6: mucosa modified with formulation 6): 49.3 ± 0.1 10^−3 cm/h
Permeability Coef. Kp ([3]; MUCOSA F16: mucosa modified with formulation 16): 6.4 ± 0.9 10^−3 cm/h
percent permeation ([3]; mucosa modified with formulation 6 (MUC F6), at 4 h): 60%
percent permeation ([3]; mucosa modified with hydrophobic formulation 3 (MUC F3), at 4 h): approximately 10%
percent permeation ([3]; mucosa modified with liposomal formulation 16 (printed MUC F6), at 4 h): approximately 10%
percent permeation (release) ([3]; sublingual mucosa (MUC), at 4 h): 40%

C[C@@H]1C[C@H]2[C@@H]3CCC4=CC(=O)C=C[C@]4(C)[C@@]3(F)[C@@H](O)C[C@]2(C)[C@@]1(O)C(=O)CO [Dexametasone, dexamethasone]
Log Ko/w (pH 7.4) [4]: 1.8 [40]

O=C(c1ccccc1)c1ccc2n1CCC2C(=O)O (centres unmarked) [Ketorolac tromethamine, ketorolac tromethamine]
Log Ko/w (pH 7.4) [4]: 2.3 [39]

CC1(C)C(C=C(Cl)Cl)C1C(=O)OCc1cccc(Oc2ccccc2)c1 (centres unmarked) [Permethrin, permethrin]
Log Ko/w (pH 7.4) [4]: 6.5 [44]

CCCC1COC(Cn2cncn2)(c2ccc(Cl)cc2Cl)O1 (centres unmarked) [Propiconazole, propiconazole]
Log Ko/w (pH 7.4) [4]: 3.5 [43]

Fungitrol
Log Ko/w (pH 7.4) [4]: 2.4 [42]

Source: article PMC10745054, “A Synthetic Model of the Mucosa for Oral Penetration Studies” (Membranes, 2023)
